Measured values as given in publication PMC4113814, “Bioactive Cembrane Derivatives from the Indian Ocean Soft Coral, Sinularia kavarattiensis” (Marine Drugs, 2014).
In brackets after ≈: the same amount, converted by molar mass.

How the values were obtained:
IL-1β = IL-1β release in supernatants of LPS-treated primary microglial cells (ELISA); format: cell-based, Wistar rats; conditions: 72 h; for IL-1β release: LPS-treated
Protocol: (§1) Primary microglial cell cultures were prepared from brains of newborn Wistar rats. Ethics approval for the experiments was granted by the EBIOTEC Review Board (Valter Lombardi, Iván Carrera and Lucía Fernández-Novoa; Project Identification Code: Sinularia Project October 2013; approved 30 October 2013). The neocortex of one-day-old postnatal rats was aseptically dissected out, and the meninges and blood vessels were carefully removed. Following cutting in a medium containing 20% horse serum, the suspension was filtered through a […] and transferred as a single cell suspension to culture dishes, using 5.0 mL of medium per dish. The cultures were incubated at 37 °C in an atmosphere containing 5% CO2. The culture medium consisted of Minimum Essential Medium Eagle, supplemented with L-glutamine, amino acids, vitamins, penicillin, gentamicin, sodium bicarbonate and 20% heat-inactivated horse serum. The medium was changed twice a week. After 1 week, the concentration of horse serum was reduced to 10%. After sixteen days in culture, cells were treated with 1 μg/mL of lipopolysaccharide (LPS). […] Positive controls were treated only with LPS, while negative controls were treated with complete medium. After 72 h of incubation, cells were counted, and 2.5 mL of the supernatants were collected from each well and frozen at −40 °C for cytokine analyses. All experiments were carried out twice.
(§2) The supernatants obtained from cell cultures were analyzed for TNF-α, IL-1β, IL-4, IL-6, IL-8, IL-10 and IL-18 using commercially available ELISA kits following the manufacturers’ instructions. All samples were assayed in duplicate, and equivocal results were repeated. The cytokine concentration was calculated from a standard curve of the corresponding recombinant cytokine.
(§3) The cytotoxicity of the compounds was measured by the colorimetric methyl thiazol tetrazolium (MTT) assay and scored as a percentage of the absorbance reduction of treated cultures versus untreated control cultures. Primary microglial cell cultures were seeded into 96-well microplates at 10^4 cells per well and allowed to grow for 24 h. […] The compounds were serially diluted in complete culture medium with two-fold dilutions (100, 50, 25, 12.5, 6.25, 3.12 and 1.56 μg/mL for in vitro cytotoxicity; 12.5, 6.25, 3.12, 1.56, 0.78 and 0.39 μg/mL for cytokine release). Different concentrations of the compounds were added to each well, and Tamoxifen was used as a positive control, with concentrations ranging from 50 to 1.56 μg/mL. Plates were incubated at 37 °C for 72 h under 5% CO2 atmosphere. Then, the 50 μL of MTT-PBS solution in culture medium were added to each well. The plates were further incubated for 4 h under the same conditions. The medium was then removed and replaced with 200 μL of DMSO to solubilize the MTT formazan product. The solutions were shaken for 20 min, and the absorbance was measured at 570 nm. […] Each value represents the mean of triplicate determinations. The IC50 values were calculated from the compound concentration-response curves.

IL-6 = IL-6 release in supernatants of LPS-treated primary microglial cells (ELISA); format: cell-based, Wistar rats; conditions: 72 h; for IL-6 release: LPS-treated
Protocol: as §1, §2, §3

IL-8 = IL-8 release in supernatants of LPS-treated primary microglial cells (ELISA); format: cell-based, Wistar rats; conditions: 72 h; for IL-8 release: LPS-treated
Protocol: as §1, §2, §3

IL-18 = IL-18 release in supernatants of LPS-treated primary microglial cells (ELISA); format: cell-based, Wistar rats; conditions: 72 h; for IL-18 release: LPS-treated
Protocol: as §1, §2
as §3, with “The compounds were serially diluted in complete culture medium with two-fold dilutions (100, 50, 25, 12.5, 6.25, 3.12 and 1.56 μg/mL for in vitro cytotoxicity; 12.5, 6.25, 3.12, 1.56, 0.78 and 0.39 μg/mL for cytokine release).” left out

TNF-α = TNF-α release in supernatants of LPS-treated primary microglial cells (ELISA); format: cell-based, Wistar rats; conditions: 72 h; for TNF-α release: LPS-treated
Protocol: as §1, §2, §3

IL-4 = IL-4 release in supernatants of LPS-treated primary microglial cells (ELISA); format: cell-based, Wistar rats; conditions: 72 h; for IL-4 release: LPS-treated
Protocol: as §1, §2
as §3, with “The compounds were serially diluted in complete culture medium with two-fold dilutions (100, 50, 25, 12.5, 6.25, 3.12 and 1.56 μg/mL for in vitro cytotoxicity; 12.5, 6.25, 3.12, 1.56, 0.78 and 0.39 μg/mL for cytokine release).” left out

IL-10 = IL-10 release in supernatants of LPS-treated primary microglial cells (ELISA); format: cell-based, Wistar rats; conditions: 72 h; for IL-10 release: LPS-treated
Protocol: as §1, §2, §3

[1] = MTT cytotoxicity assay on primary microglial cell cultures; format: cell-based, Wistar rats; conditions: Wistar, rat, mean of triplicate
Protocol: Primary microglial cell cultures were prepared from brains of newborn Wistar rats. Ethics approval for the experiments was granted by the EBIOTEC Review Board (Valter Lombardi, Iván Carrera and Lucía Fernández-Novoa; Project Identification Code: Sinularia Project October 2013; approved 30 October 2013). The neocortex of one-day-old postnatal rats was aseptically dissected out, and the meninges and blood vessels were carefully removed. Following cutting in a medium containing 20% horse serum, the suspension was filtered through a […] and transferred as a single cell suspension to culture dishes, using 5.0 mL of medium per dish. The cultures were incubated at 37 °C in an atmosphere containing 5% CO2. The culture medium consisted of Minimum Essential Medium Eagle, supplemented with L-glutamine, amino acids, vitamins, penicillin, gentamicin, sodium bicarbonate and 20% heat-inactivated horse serum. The medium was changed twice a week. After 1 week, the concentration of horse serum was reduced to 10%. After sixteen days in culture, cells were treated with 1 μg/mL of lipopolysaccharide (LPS). After six hours, different concentrations (1.0 μg/mL, 2.5 μg/mL and 5.0 μg/mL) of Compounds 1–4 and 6 were added to each well, and plates were incubated for 72 h at 37 °C in an atmosphere containing 5% CO2. Positive controls were treated only with LPS, while negative controls were treated with complete medium. After 72 h of incubation, cells were counted, and 2.5 mL of the supernatants were collected from each well and frozen at −40 °C for cytokine analyses. All experiments were carried out twice.
The cytotoxicity of the compounds was measured by the colorimetric methyl thiazol tetrazolium (MTT) assay and scored as a percentage of the absorbance reduction of treated cultures versus untreated control cultures. Primary microglial cell cultures were seeded into 96-well microplates at 10^4 cells per well and allowed to grow for 24 h. The initial concentration of Compounds 1–4 and 6 was 100 μg/mL in DMSO. The compounds were serially diluted in complete culture medium with two-fold dilutions (100, 50, 25, 12.5, 6.25, 3.12 and 1.56 μg/mL for in vitro cytotoxicity; 12.5, 6.25, 3.12, 1.56, 0.78 and 0.39 μg/mL for cytokine release). Different concentrations of the compounds were added to each well, and Tamoxifen was used as a positive control, with concentrations ranging from 50 to 1.56 μg/mL. Plates were incubated at 37 °C for 72 h under 5% CO2 atmosphere. Then, the 50 μL of MTT-PBS solution in culture medium were added to each well. The plates were further incubated for 4 h under the same conditions. The medium was then removed and replaced with 200 μL of DMSO to solubilize the MTT formazan product. The solutions were shaken for 20 min, and the absorbance was measured at 570 nm. […] Each value represents the mean of triplicate determinations. The IC50 values were calculated from the compound concentration-response curves.

CHIKV replicon [2] = assay: microbe, parasite or virus in culture; conditions: Chikungunya virus; for inhibition at 100 µM: 48 h, read-out: inhibition of the CHIKV replicon (Rluc marker levels)
CHIKV replicon [3] = assay: CHIKV replicon assay, Cell-IQ live cell imaging, EGFP fluorescence intensity; conditions: 48 h; for decrease in EGFP marker fluorescence intensity: 50 and 100 μM
BHK-CHIKV-NCT cells [4] = assay: Cell-IQ live cell imaging, cytotoxicity by cell classification (viable cells); conditions: 48 h, control compounds
BHK-CHIKV-NCT cells [5] = assay: Cytotoxicity assay by ATP quantitation (CellTiter GLO)

C=C(C)[C@@H]1C/C=C(\C(=O)OC)CC(=O)C[C@]2(C)CC(=O)[C@H](CC(=O)C1)O2 [Compound 4]
IL-1β release (IL-1β; C1: 1.0 μg/mL): 1.01 ± 0.04 pg/mL | IL-1β release (IL-1β; C2: 2.5 μg/mL): 1.02 ± 0.04 pg/mL | IL-1β release (IL-1β; C3: 5.0 μg/mL): 1.01 ± 0.02 pg/mL | IC50 (IL-1β; Rattus norvegicus, read-out: IL-1β IC50): > 12.5 µg/mL | IL-6 release (IL-6; C1: 1.0 μg/mL): 12.1 ± 1.3 pg/mL | IL-6 release (IL-6; C2: 2.5 μg/mL): 14.1 ± 1.1 pg/mL | IL-6 release (IL-6; C3: 5.0 μg/mL): 12.1 ± 1.3 pg/mL | IC50 (IL-6; Rattus norvegicus, read-out: IL-6 IC50): > 12.5 µg/mL | IL-8 release (IL-8; C2: 2.5 μg/mL): 247 ± 8 pg/mL | IL-8 release (IL-8; C3: 5.0 μg/mL): 247 ± 8 pg/mL | IC50 (IL-8; Rattus norvegicus, read-out: IL-8 IC50): > 12.5 µg/mL | IL-18 release (IL-18; C2: 2.5 μg/mL): 312 ± 8.2 pg/mL | IL-18 release (IL-18; C3: 5.0 μg/mL): 312 ± 8.2 pg/mL | IC50 (IL-18; Rattus norvegicus, read-out: IL-18 IC50): > 12.5 µg/mL | TNF-α release (TNF-α; C1: 1.0 μg/mL): 33.2 ± 2.8 pg/mL | TNF-α release (TNF-α; C2: 2.5 μg/mL): 29.8 ± 2.5 pg/mL | TNF-α release (TNF-α; C3: 5.0 μg/mL): 32.5 ± 3.7 pg/mL | IC50 (TNF-α; Rattus norvegicus, read-out: TNF-α IC50): > 12.5 µg/mL | IL-4 release (IL-4; C1: 1.0 μg/mL): 2.2 ± 0.2 pg/mL | IL-4 release (IL-4; C2: 2.5 μg/mL): 2.3 ± 0.5 pg/mL | IL-4 release (IL-4; C3: 5.0 μg/mL): 1.8 ± 0.2 pg/mL | IC50 (IL-4; Rattus norvegicus, read-out: IL-4 IC50): > 12.5 µg/mL | IL-10 release (IL-10; C1: 1.0 μg/mL): 8.4 ± 2.6 pg/mL | IL-10 release (IL-10; C2: 2.5 μg/mL): 7.9 ± 2.5 pg/mL | IL-10 release (IL-10; C3: 5.0 μg/mL): 7.8 ± 3.2 pg/mL | IC50 (IL-10; Rattus norvegicus, read-out: IL-10 IC50): > 12.5 µg/mL | IC50 at 72 h [1]: > 100 µg/mL

C=C1/C=C/[C@H](C(C)C)CCC(=C)[C@H](O)CC1 [Compound 5, ent-germacra-4(15),5E,10(14)-trien-1β-ol]
inhibition at 100 µM (CHIKV replicon [2]): 0.5 to 63% | decrease in EGFP marker fluorescence intensity (CHIKV replicon [3]): only moderate decreases

O=c1cnn([C@@H]2O[C@H](CO)[C@@H](O)[C@H]2O)c(=O)[nH]1 [Compound 6-azauridine, 6-azauridine, reference compound]
IC50 (CHIKV replicon [2]; read-out: IC50, inhibition of replicon (Rluc detection)): 2000 nM | inhibition at 10 µM (CHIKV replicon [2]; read-out: average inhibition (Rluc)): 69% | effect of control compound on fluorescence intensity (CHIKV replicon [3]; control compounds): decreases the fluorescence intensity | effect of control compound on number of viable cells / cell morphology (BHK-CHIKV-NCT cells [4]): without affecting cell morphology

C=C(C)C1CC(=O)C2C3C(=O)CC(C=C3C(C)=O)C(C(=O)O)C2C1 (stereo not drawn) [Compound 7, kavaranolide]
inhibition at 100 µM (CHIKV replicon [2]): 0.5 to 63% | decrease in EGFP marker fluorescence intensity (CHIKV replicon [3]): only moderate decreases

CC/C(=C(\c1ccccc1)c1ccc(OCCN(C)C)cc1)c1ccccc1 [Tamoxifen, reference compound]
IC50 at 72 h [1]: 3.6 µg/mL (≈ 9.69 µM)

polymyxin B [reference compound]
average toxicity (BHK-CHIKV-NCT cells [5]; 10,000 IU/mL): 93% | ED50 for the cytotoxic activity (BHK-CHIKV-NCT cells [5]; positive control): 5900 IU/mL | effect of control compound on number of viable cells / cell morphology (BHK-CHIKV-NCT cells [4]): radically decreases
